From US20090061006A1, “Layered Nanoparticles for Sustained Release of Small Molecules” (priority 2006, published 2009)
Where two headings read alike, the source gives them in different places. Where a SMILES comes first, the peptide text is derived from it. [ ]: non-standard residue; d: D form. dPhe(4-Cl) = N[C@H](Cc1ccc(Cl)cc1)C(=O)O; d2Nal = N[C@H](Cc1ccc2ccccc2c1)C(=O)O; dCit = NC(=O)NCCC[C@@H](N)C(=O)O; d3Pal = N[C@H](Cc1cccnc1)C(=O)O

Tests used:
[1] = test system: human endometrial cancer cell lines; conditions: cited from earlier work
[2] = test system: human ovarian cancer cell lines; conditions: cited from earlier work
[3] = cited from earlier work
[4] = test system: breast cancer xenograft; conditions: intravenously injected, cited from earlier work
[5] = test system: MDA-MB-435S human breast cancer cells; assay: Cytotoxicity study, thiazolyl Blue (MTT) cell viability; assay type: cell-based; conditions: 9 hours incubation
Description: MDA-MB-435S cells were seeded into 12 well plates and grown in culture media containing Leibovitz's L-15 medium, 10% fetal bovine serum, 0.01 mg/mL bovine insulin, 100 IU/mL penicillin, and 100 μg/mL streptomycin. The cells were kept in tightly closed flasks at 37° C. in an incubator and grown to 70% confluence. Treatments with free Phor21-βCG(ala) were conducted at concentrations of 5, 20, and 100 μM. Treatments with silica-peptide nanoshells were conducted at corresponding amounts, equivalent to total Phor21-βCG(ala) concentrations of 5, 20, and 100 μM. On a separate plate silica nanoshells without peptide (15 mg/mL culture medium) were added to MDA-MB-435S cell cultures to determine their effect on cell viability. In all incubations, added saline was used as a control. Total incubation time was 9 hours at 37° C. Cell viability was measured in a thiazolyl Blue assay using [3-(4,5)-Dimethylthiazol-2-yl]-2,5 Diphenyltetrazolium Bromide—MTT. Cleavage of the tetrazolium ring by active mitochondria was used as a measure of the number of living cells. Statistical significance was determined using analysis of variance (ANOVA) and a two-tailed Student's t-test. Differences were considered significant at p<0.05.

[6] = in vivo
[7] = test system: cancer cells; assay: Potency in destroying cancer cells; assay type: cell-based
[8] = cited from earlier work; remark: listed apart in the source

**Q.** What does the source list for `CC(=O)N[C@H](Cc1ccc2ccccc2c1)C(=O)N[C@H](Cc1ccc(Cl)cc1)C(=O)N[C@H](Cc1cccnc1)C(=O)N[C@@H](CO)C(=O)N[C@@H](Cc1ccc(O)cc1)C(=O)N[C@H](CCCNC(N)=O)C(=O)N[C@@H](CC(C)C)C(=O)N[C@@H](CCCNC(=N)N)C(=O)N1CCC[C@H]1C(=O)N[C@H](C)C(N)=O` [Cetrorelix] (Ac-[d2Nal][dPhe(4-Cl)][d3Pal]SY[dCit]LRP[dA]-NH2)?
**A.** in vitro proliferation [1]: inhibited; in vitro proliferation [2]: inhibited

**Q.** Which solubility in water [3] does the source give for `C[C@@H]1C[C@H]2[C@@H]3CCC4=CC(=O)C=C[C@]4(C)[C@@]3(F)[C@@H](O)C[C@]2(C)[C@@]1(O)C(=O)CO` [Dexamethasone] here?
**A.** insoluble

**Q.** Which in vitro proliferation [1] does the source give for `CC(C)C[C@H](NC(=O)[C@@H](Cc1c[nH]c2ccccc12)NC(=O)[C@H](Cc1ccc(O)cc1)NC(=O)[C@H](CO)NC(=O)[C@H](Cc1c[nH]c2ccccc12)NC(=O)[C@H](Cc1c[nH]cn1)NC(=O)[C@@H]1CCC(=O)N1)C(=O)N[C@@H](CCCNC(=N)N)C(=O)N1CCC[C@H]1C(=O)NCC(N)=O` [triptorelin] here?
**A.** inhibited

**Q.** And the in vitro proliferation [2]?
**A.** inhibited

**Q.** With “Phor21-βCG(ala): 35-residue conjugate peptide KFAKFAKKFAKFAKKFAKFAK-SYAVASAQAALAAR (SEQ ID NO. 1): lytic peptide Phor21 plus gonadotropin analog ligand βCG(ala) (KFAKFAKKFAKFAKKFAKFAKSYAVASAQAALAAR; Phor21-beta-CG(ala) Peptide)” as the compound, how does the “cell death in treated tumors” value ([4]; 8 mg/kg body weight, p<0.01) read?
**A.** lower

**Q.** And the “cell death in treated tumors” value ([4]; 0.2 and 2 mg/kg body weight, p<0.05)?
**A.** significantly higher

**Q.** What about the “activity at 100 micromolar versus 20 micromolar” value [5] of the same compound?
**A.** significantly lower activity

**Q.** What about the “toxicity against breast cancer cells” value ([5]; free peptide, 5, 20 and 100 μM, N=6) of the same compound?
**A.** destroyed

**Q.** And the “time after which free peptide is almost completely destroyed in circulation” value [6]?
**A.** about three

**Q.** For “Phor21: membrane-disrupting lytic peptide, residues 1-21 of SEQ ID NO. 1 (KFAKFAKKFAKFAKKFAKFAK; Phor21-beta-CG(ala) Peptide)”, which “potency in destroying cancer cells versus Hecate or Phor14” value [7] is on record?
**A.** more potent

**Q.** Which half-life in vivo [8] does the source give for “luteinizing hormone releasing hormone [LHRH]” here?
**A.** ~20 min
